Measurements reported in ChEMBL document CHEMBL4507273 (2021).
pKi: −log10 of the molar value.

Key:
[1] = biological target: T1, 5-hydroxytryptamine receptor 1A (Homo sapiens, UniProt P08908); test: GPCRScan assay: inhibition of 5-HT1A; parameters: radioligand conc. used [nm] 0.5 – 1.0, parental cells stable CHO; details: for pKi: read-out: Ki
T1 sequence (P08908 whole entry): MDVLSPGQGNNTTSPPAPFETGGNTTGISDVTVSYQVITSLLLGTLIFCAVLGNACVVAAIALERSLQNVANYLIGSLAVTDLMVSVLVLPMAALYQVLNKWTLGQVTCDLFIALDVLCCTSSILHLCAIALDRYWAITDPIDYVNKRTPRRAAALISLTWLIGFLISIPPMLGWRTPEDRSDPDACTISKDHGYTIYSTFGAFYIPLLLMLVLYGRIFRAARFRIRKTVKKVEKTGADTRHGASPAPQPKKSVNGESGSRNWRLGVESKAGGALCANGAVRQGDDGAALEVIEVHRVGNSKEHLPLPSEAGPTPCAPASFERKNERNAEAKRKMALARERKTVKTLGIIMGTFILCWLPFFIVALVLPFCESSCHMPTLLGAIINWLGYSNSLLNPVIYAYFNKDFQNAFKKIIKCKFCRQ

[2] = system: Tyrosine-protein kinase ABL1 (Homo sapiens), P00519 [T315I]; details: Compound concentration 1000.0 nM
[3] = biological target: RAC-gamma serine/threonine-protein kinase (Homo sapiens) (UniProt Q9Y243); details: Compound concentration 1000.0 nM
[4] = biological target: 5'-AMP-activated protein kinase catalytic subunit alpha-2 (Homo sapiens) (UniProt P54646); details: Compound concentration 1000.0 nM
[5] = biological target: Tyrosine-protein kinase receptor UFO (Homo sapiens) (UniProt P30530); details: Compound concentration 1000.0 nM
[6] = biological target: Tyrosine-protein kinase Blk (Homo sapiens) (UniProt P51451); details: Compound concentration 1000.0 nM
[7] = biological target: Cytoplasmic tyrosine-protein kinase BMX (Homo sapiens) (UniProt P51813); details: Compound concentration 1000.0 nM
[8] = biological target: Cyclin-dependent kinase 19 (Homo sapiens) (UniProt Q9BWU1); details: Compound concentration 1000.0 nM
[9] = biological target: Macrophage colony-stimulating factor 1 receptor (Homo sapiens) (UniProt P07333); details: Compound concentration 1000.0 nM
[10] = biological target: Mitogen-activated protein kinase kinase kinase 12 (Homo sapiens) (UniProt Q12852); details: Compound concentration 1000.0 nM
[11] = system: Epidermal growth factor receptor (Homo sapiens), P00533 [UNDEFINED MUTATION]; details: Compound concentration 1000.0 nM
[12] = biological target: Eukaryotic translation initiation factor 2-alpha kinase 1 (Homo sapiens) (UniProt Q9BQI3); details: Compound concentration 1000.0 nM
[13] = system: Receptor-type tyrosine-protein kinase FLT3 (Homo sapiens), P36888 [D835H]; details: Compound concentration 1000.0 nM
[14] = system: Receptor-type tyrosine-protein kinase FLT3 (Homo sapiens), P36888 [K663Q]; details: Compound concentration 1000.0 nM
[15] = biological target: Inhibitor of nuclear factor kappa-B kinase subunit beta (Homo sapiens) (UniProt O14920); details: Compound concentration 1000.0 nM
[16] = system: Mast/stem cell growth factor receptor Kit (Homo sapiens), P10721 [V559D,T670I]; details: Compound concentration 1000.0 nM
[17] = biological target: Mitogen-activated protein kinase kinase kinase 4 (Homo sapiens) (UniProt Q9Y6R4); details: Compound concentration 1000.0 nM
[18] = biological target: Serine/threonine-protein kinase 4 (Homo sapiens) (UniProt Q13043); details: Compound concentration 1000.0 nM
[19] = biological target: Macrophage-stimulating protein receptor (Homo sapiens) (UniProt Q04912); details: Compound concentration 1000.0 nM
[20] = biological target: Serine/threonine-protein kinase mTOR (Homo sapiens) (UniProt P42345); details: Compound concentration 1000.0 nM
[21] = biological target: Serine/threonine-protein kinase Nek6 (Homo sapiens) (UniProt Q9HC98); details: Compound concentration 1000.0 nM
[22] = biological target: Serine/threonine-protein kinase Nek7 (Homo sapiens) (UniProt Q8TDX7); details: Compound concentration 1000.0 nM
[23] = biological target: Serine/threonine-protein kinase Nek9 (Homo sapiens) (UniProt Q8TD19); details: Compound concentration 1000.0 nM
[24] = biological target: Serine/threonine-protein kinase PAK 1 (Homo sapiens) (UniProt Q13153); details: Compound concentration 1000.0 nM
[25] = biological target: Serine/threonine-protein kinase PAK 4 (Homo sapiens) (UniProt O96013); details: Compound concentration 1000.0 nM
[26] = biological target: Serine/threonine-protein kinase PAK 5 (Homo sapiens) (UniProt Q9P286); details: Compound concentration 1000.0 nM
[27] = biological target: 3-phosphoinositide-dependent protein kinase 1 (Homo sapiens) (UniProt O15530); details: Compound concentration 1000.0 nM
[28] = biological target: Phosphatidylinositol 4,5-bisphosphate 3-kinase catalytic subunit gamma isoform (Homo sapiens) (UniProt P48736); details: Compound concentration 1000.0 nM
[29] = biological target: Phosphatidylinositol 4-phosphate 5-kinase type-1 gamma (Homo sapiens) (UniProt O60331); details: Compound concentration 1000.0 nM
[30] = biological target: Serine/threonine-protein kinase D2 (Homo sapiens) (UniProt Q9BZL6); details: Compound concentration 1000.0 nM
[31] = biological target: Rho-associated protein kinase 2 (Homo sapiens) (UniProt O75116); details: Compound concentration 1000.0 nM
[32] = biological target: Ribosomal protein S6 kinase alpha-2 (Homo sapiens) (UniProt Q15349); details: Compound concentration 1000.0 nM
[33] = biological target: TGF-beta receptor type-1 (Homo sapiens) (UniProt P36897); details: Compound concentration 1000.0 nM
[34] = biological target: Serine/threonine-protein kinase tousled-like 2 (Homo sapiens) (UniProt Q86UE8); details: Compound concentration 1000.0 nM
[35] = biological target: Activated CDC42 kinase 1 (Homo sapiens) (UniProt Q07912); details: Compound concentration 1000.0 nM
[36] = biological target: Tyrosine-protein kinase ZAP-70 (Homo sapiens) (UniProt P43403); details: Compound concentration 1000.0 nM
[37] = biological target: 5-hydroxytryptamine receptor 3A (Homo sapiens) (UniProt P46098); details: Compound concentration 10.0 uM
D(3) dopamine receptor = D(3) dopamine receptor (Homo sapiens, UniProt P35462); details: Compound concentration 10.0 uM
[38] = biological target: Sodium-dependent dopamine transporter (Homo sapiens, UniProt Q01959); details: Compound concentration 10.0 uM

Phosphatidylinositol 4,5-bisphosphate 3-kinase catalytic subunit gamma isoform (Homo sapiens), sequence (P48736 whole entry, looked up, canonical isoform): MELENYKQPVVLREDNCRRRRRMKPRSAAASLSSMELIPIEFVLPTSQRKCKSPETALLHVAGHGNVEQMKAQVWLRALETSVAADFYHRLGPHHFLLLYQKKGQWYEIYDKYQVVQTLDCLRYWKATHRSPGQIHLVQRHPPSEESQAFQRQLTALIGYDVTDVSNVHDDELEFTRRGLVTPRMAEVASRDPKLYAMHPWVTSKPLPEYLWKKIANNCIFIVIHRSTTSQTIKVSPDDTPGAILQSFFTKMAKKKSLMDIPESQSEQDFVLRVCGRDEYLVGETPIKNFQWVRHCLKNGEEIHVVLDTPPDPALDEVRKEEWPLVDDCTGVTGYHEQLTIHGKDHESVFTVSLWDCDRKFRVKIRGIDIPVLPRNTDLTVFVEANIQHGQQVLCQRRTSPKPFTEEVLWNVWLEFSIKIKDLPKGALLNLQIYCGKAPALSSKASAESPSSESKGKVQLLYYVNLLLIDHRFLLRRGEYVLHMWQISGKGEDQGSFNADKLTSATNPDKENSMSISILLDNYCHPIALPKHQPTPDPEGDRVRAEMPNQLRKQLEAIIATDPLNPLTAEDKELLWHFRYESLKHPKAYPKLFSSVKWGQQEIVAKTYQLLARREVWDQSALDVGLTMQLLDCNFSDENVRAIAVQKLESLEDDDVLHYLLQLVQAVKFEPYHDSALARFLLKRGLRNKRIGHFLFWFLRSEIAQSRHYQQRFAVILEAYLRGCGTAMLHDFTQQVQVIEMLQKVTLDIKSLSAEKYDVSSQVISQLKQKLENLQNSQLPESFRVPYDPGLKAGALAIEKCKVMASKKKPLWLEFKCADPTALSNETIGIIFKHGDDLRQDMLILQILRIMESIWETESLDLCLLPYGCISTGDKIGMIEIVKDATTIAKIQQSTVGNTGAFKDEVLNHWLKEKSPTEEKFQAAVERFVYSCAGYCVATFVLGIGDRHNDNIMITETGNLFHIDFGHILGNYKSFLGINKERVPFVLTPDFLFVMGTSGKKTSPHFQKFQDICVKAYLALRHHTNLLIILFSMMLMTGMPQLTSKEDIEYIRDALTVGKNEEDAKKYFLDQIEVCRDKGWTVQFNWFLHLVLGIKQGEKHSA
Serine/threonine-protein kinase Nek7 (Homo sapiens), sequence (Q8TDX7 whole entry, looked up): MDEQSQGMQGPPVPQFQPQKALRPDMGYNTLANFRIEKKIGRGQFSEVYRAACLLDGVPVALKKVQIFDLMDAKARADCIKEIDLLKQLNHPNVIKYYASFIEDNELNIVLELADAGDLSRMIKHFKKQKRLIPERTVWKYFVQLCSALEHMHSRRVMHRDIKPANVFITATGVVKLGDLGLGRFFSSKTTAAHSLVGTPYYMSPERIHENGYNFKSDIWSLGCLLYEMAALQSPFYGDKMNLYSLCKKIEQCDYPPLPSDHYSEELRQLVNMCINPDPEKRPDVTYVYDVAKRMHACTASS
Serine/threonine-protein kinase 4 (Homo sapiens), sequence (Q13043 whole entry): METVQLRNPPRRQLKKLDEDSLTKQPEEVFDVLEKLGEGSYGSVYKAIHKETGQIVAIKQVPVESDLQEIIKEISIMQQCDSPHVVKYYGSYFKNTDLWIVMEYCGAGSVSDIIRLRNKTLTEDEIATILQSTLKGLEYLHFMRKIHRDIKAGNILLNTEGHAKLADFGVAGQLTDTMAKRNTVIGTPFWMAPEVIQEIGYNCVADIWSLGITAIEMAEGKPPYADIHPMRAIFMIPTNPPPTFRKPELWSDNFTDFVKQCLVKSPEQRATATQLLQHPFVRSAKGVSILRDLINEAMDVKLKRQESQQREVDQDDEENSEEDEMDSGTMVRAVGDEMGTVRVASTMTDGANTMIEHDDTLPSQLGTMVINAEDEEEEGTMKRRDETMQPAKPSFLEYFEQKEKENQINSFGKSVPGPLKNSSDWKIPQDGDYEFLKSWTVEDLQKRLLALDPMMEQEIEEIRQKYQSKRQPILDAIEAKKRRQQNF
5'-AMP-activated protein kinase catalytic subunit alpha-2 (Homo sapiens), sequence (P54646 whole entry, looked up): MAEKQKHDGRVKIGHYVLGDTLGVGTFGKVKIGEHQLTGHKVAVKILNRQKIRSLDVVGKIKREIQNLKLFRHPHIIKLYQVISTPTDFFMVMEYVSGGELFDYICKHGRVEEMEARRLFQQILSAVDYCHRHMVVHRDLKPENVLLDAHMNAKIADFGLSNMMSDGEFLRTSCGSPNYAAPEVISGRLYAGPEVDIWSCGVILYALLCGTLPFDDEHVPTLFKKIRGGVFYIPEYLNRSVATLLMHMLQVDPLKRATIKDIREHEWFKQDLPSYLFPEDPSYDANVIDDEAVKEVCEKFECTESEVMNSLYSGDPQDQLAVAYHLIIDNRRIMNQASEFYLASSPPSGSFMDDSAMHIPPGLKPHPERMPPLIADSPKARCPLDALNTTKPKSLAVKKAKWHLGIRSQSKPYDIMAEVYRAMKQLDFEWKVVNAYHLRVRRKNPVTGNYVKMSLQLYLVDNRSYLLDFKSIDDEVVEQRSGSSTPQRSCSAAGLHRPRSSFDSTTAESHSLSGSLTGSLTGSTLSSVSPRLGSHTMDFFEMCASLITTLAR
Mitogen-activated protein kinase kinase kinase 4 (Homo sapiens), sequence (Q9Y6R4 whole entry): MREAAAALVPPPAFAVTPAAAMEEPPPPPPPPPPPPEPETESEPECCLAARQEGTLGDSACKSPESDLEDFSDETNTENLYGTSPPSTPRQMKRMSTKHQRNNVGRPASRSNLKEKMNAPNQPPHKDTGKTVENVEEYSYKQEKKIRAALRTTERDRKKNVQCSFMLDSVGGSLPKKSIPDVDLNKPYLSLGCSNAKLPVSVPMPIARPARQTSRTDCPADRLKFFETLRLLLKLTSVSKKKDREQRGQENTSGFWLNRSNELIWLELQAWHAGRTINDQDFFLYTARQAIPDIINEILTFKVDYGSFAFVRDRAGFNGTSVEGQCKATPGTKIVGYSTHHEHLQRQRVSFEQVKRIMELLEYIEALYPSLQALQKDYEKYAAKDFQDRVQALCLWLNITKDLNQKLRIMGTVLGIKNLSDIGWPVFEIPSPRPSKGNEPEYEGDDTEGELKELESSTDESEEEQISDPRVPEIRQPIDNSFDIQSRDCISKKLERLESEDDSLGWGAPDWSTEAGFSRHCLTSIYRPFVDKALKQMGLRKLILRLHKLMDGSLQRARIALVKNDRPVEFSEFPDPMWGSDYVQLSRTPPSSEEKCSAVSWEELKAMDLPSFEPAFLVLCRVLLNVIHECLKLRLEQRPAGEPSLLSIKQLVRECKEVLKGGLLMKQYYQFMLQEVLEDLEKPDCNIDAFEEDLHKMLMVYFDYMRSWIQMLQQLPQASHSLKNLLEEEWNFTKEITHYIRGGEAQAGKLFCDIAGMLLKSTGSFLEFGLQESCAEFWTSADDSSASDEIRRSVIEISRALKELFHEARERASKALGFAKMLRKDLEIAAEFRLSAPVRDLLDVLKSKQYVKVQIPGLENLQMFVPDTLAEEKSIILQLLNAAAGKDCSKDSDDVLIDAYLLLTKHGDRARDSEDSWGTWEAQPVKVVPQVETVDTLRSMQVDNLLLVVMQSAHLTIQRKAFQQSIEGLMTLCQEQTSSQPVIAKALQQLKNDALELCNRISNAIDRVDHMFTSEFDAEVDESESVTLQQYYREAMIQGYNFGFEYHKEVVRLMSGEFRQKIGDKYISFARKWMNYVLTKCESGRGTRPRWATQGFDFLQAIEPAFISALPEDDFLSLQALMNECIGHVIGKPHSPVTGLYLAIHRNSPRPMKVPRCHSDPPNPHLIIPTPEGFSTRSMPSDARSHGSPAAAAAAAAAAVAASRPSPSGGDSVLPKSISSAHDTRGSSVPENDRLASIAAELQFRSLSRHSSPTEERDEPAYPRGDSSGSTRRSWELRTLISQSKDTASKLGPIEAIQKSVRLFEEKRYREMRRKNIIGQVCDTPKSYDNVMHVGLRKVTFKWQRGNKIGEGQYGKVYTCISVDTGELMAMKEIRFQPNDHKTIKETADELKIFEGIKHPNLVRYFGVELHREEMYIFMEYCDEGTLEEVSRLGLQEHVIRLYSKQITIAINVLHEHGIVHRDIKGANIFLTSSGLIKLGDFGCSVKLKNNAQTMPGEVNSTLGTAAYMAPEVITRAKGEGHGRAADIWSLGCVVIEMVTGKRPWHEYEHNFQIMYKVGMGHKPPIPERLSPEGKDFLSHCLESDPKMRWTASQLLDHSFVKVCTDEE
Tyrosine-protein kinase Blk (Homo sapiens), sequence (P51451 2-505 limits assumed): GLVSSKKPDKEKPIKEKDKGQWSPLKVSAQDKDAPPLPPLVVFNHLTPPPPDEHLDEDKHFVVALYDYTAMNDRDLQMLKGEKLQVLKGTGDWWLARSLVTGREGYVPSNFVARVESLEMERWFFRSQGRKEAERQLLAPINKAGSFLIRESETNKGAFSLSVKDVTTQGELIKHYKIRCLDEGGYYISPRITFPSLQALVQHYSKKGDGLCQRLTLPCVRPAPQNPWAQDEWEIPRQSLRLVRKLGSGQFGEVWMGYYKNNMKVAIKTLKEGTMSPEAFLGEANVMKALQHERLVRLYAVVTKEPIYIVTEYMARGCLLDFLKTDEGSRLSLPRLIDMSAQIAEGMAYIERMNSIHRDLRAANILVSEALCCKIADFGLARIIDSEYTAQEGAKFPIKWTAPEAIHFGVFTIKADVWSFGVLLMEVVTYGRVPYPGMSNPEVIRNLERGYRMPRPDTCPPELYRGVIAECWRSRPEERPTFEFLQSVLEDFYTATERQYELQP
D(3) dopamine receptor, sequence (P35462 whole entry): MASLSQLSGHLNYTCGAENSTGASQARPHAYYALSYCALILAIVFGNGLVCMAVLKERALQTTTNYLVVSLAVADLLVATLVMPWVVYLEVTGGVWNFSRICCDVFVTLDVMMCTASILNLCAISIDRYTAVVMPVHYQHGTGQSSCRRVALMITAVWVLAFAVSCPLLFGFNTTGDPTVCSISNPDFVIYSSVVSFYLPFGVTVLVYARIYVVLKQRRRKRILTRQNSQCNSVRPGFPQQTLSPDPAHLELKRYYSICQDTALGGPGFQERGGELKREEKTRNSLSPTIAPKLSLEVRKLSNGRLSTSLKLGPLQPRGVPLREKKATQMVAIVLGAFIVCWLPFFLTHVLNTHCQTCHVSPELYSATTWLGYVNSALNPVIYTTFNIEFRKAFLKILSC

SMILES	pKi [1]	residual activity [2] [%]	residual activity [3] [%]	residual activity [4] [%]	residual activity [5] [%]	residual activity [6] [%]	residual activity [7] [%]	residual activity [8] [%]	residual activity [9] [%]	residual activity [10] [%]	residual activity [11] [%]	residual activity [12] [%]	residual activity [13] [%]	residual activity [14] [%]	residual activity [15] [%]	residual activity [16] [%]	residual activity [17] [%]	residual activity [18] [%]	residual activity [19] [%]	residual activity [20] [%]	other results
CNCc1ccccc1-c1csc([C@@H](C)Nc2nc(C)nc3cc(OC)c(OC)cc23)c1 [BAY-293]	5.44	100	92	97	93	91	49	85	91	100	50	100	55	77	94	80	73	100	100	100	Ki ([1]; read-out: pKi (converted)): 3.35 µM; residual activity [21]: 96%; residual activity [22]: 100%; residual activity [23]: 100%; residual activity [24]: 97%; residual activity [25]: 97%; residual activity [26]: 95%; residual activity [27]: 92%; residual activity [28]: 67%; residual activity [29]: 88%; residual activity [30]: 100%; residual activity [31]: 93%; residual activity [32]: 100%; residual activity [33]: 74%; residual activity [34]: 90%; residual activity [35]: 100%; residual activity [36]: 87%; inhibition [37]: 17.1%; inhibition (D(3) dopamine receptor): 56.8%; inhibition [38]: 77.2%
CNCc1ccccc1-c1csc([C@H](C)Nc2nc(C)nc3cc(OC)c(OC)cc23)c1 [BAY-294]	6.41	95	95	100	100	94	58	88	91	97	64	100	74	93	83	100	100	100	100	100	residual activity [21]: 100%; residual activity [22]: 100%; residual activity [23]: 100%; residual activity [24]: 99%; residual activity [25]: 100%; residual activity [26]: 100%; residual activity [27]: 100%; residual activity [28]: 73%; residual activity [29]: 100%; residual activity [30]: 99%; residual activity [31]: 100%; residual activity [32]: 100%; residual activity [33]: 80%; residual activity [34]: 100%; residual activity [35]: 100%; residual activity [36]: 100%; inhibition [37]: 16%; inhibition (D(3) dopamine receptor): 64.8%; inhibition [38]: 70.3%
